Assay [1] deals with (D1)mix. Nature of the assay: UV-melting (UV-Tm) of DNA duplex with probe. In kind it is binding. The settings on record: (D1)mix with QCy-DT vs duplex alone. How it is done:
(§1) The UV-vis absorption and emission spectra are recorded on Agilent Technologies Cary series UV-vis-NIR absorbance and Cary eclipse fluorescence spectrophotometers, respectively. Thermal denaturation (UV-melting) studies are carried out on Cary 5000 UV-vis-NIR spectrophotometer equipped with Cary temperature controller in the range of 10° C. to 90° C. with a ramp rate of 1° C./min. The variable temperature/wavelength mode is used. Absorption is monitored at 260 nm with regular 5° C. intervals. Melting temperatures (Tm) of DNA samples are calculated from the first derivatives of the absorption vs. temperature curves (thermal denaturation or melting curves) obtained by monitoring at 260 nm.
(§2) To understand the effect of QCy-DT binding to DNA on the thermal stability of DNA, temperature-dependent UV-melting studies (UV-Tm) is performed on different [QCy-DT+DNA] complexes. […] Therefore, the binding affinity, fluorescence quantum yield, and UV-Tm data validated the preferential recognition of AT-rich DNA by QCy-DT probe compared to GC-rich DNA.

Assay [2] has as its system (A-T)20. Nature of the assay: UV-melting (UV-Tm) of DNA duplex with probe. It is filed as binding. The settings on record: (A-T)20 with QCy-DT vs duplex alone. How it is done:
as §1, §2

Assay [3] concerns d(ATAT)5. The experiment in a line: UV-melting (UV-Tm) of DNA duplex with probe. It is filed as binding. Particulars: d(ATAT)5 with QCy-DT vs duplex alone. The method, then: as §1, §2
Assay [4] deals with Drew AT. Nature of the assay: UV-melting (UV-Tm) of DNA duplex with probe. It is filed as binding. The settings on record: Drew AT with QCy-DT vs duplex alone. The method, then:
as §1, §2

Assay [5] relates to DM4 (5′-AATT-3′). The experiment in a line: Sequence-specific fluorescence enhancement, variable (A/T)4 core. Particulars: QCy-DT 2 μM, DM4 4 μM. In kind it is binding. The method, then: (§3) All the chemicals, reagents, single-stranded oligos (dA20, dT20, dG20, dC20), self-complementary oligos {d(ATAT)5, (D1)mix, Drew-AT, Calf-Thymus DNA (CT-DNA), (DM1, DM2, DM3, DM4, DM5, DM6 and DM7)}, RNA, were purchased from Sigma-Aldrich. ^1H and ^13C NMR spectra were recorded on a Bruker AV-400 MHz spectrometer with chemical shifts reported as parts per million (ppm) (in DMSO-d6, tetramethylsilane as an internal standard) at 20° C. UV-vis absorption and emission spectra were measured in quartz cuvettes of 1 cm path length. High resolution mass spectra (HRMS) were obtained on Agilent Technologies 6538 UHD Accurate-Mass Q-TOF LC/MS spectrometer. All biophysical studies (UV-vis, fluorescence and Cirular dichroism) are carried out at the concentration 0-5 μM of probe, volume=500 μL, temperature=25° C. and time of incubation=2 minutes. HeLa cells and MCF7 cells used in the biological studies are obtained from “Molecular reproduction, development and genetics lab, Indian institute of science, Bangalore, India”
(§4) Stock solutions of QCy-DT are prepared in double-distilled (dd) water in the order of 10^−3 M and stored at about −10° C. DNA stock solutions are prepared by dissolving oligo samples in double-distilled (dd) water in the order of 10^−4 M. Solutions of DNA duplexes are prepared in Tris-HCl (100 mM, pH=7.4) buffer solution by mixing complementary DNA strands in equimolar concentration. This solution is then subjected to annealing by heating up to about 85° C. for about 15 minutes, subsequently cooled to room temperature for about 7 hours and stored in the refrigerator (about 4° C.) for about 4 hours.
as §1
Almost about ˜4-folds difference in fluorescence enhancement of QCy-DT in the presence of (A-T)20 compared to self-complementary, alternative AT-base pair containing d(ATAT)5 duplex is observed, although both contain total 20 AT base pairs (FIG. 3 and FIG. 12a). […] There are no NIR-fluorescence probes that sequence-specifically recognize the minor groove of AT-rich DNA. […] Further, QCy-DT detects all AT-rich sequences by showing varied fluorescence/sensitivity. […]

Assay [6] relates to CT-DNA. Nature of the assay: Switch-on NIR-fluorescence enhancement with DNA. It is filed as binding, Calf. How it is done:
All the chemicals, reagents, single-stranded oligos (dA20, dT20, dG20, dC20), self-complementary oligos {d(ATAT)5, (D1)mix, Drew-AT, Calf-Thymus DNA (CT-DNA), (DM1, DM2, DM3, DM4, DM5, DM6 and DM7)}, RNA, were purchased from Sigma-Aldrich. ^1H and ^13C NMR spectra were recorded on a Bruker AV-400 MHz spectrometer with chemical shifts reported as parts per million (ppm) (in DMSO-d6, tetramethylsilane as an internal standard) at 20° C. UV-vis absorption and emission spectra were measured in quartz cuvettes of 1 cm path length. High resolution mass spectra (HRMS) were obtained on Agilent Technologies 6538 UHD Accurate-Mass Q-TOF LC/MS spectrometer. All biophysical studies (UV-vis, fluorescence and Cirular dichroism) are carried out at the concentration 0-5 μM of probe, volume=500 μL, temperature=25° C. and time of incubation=2 minutes. […]
The UV-vis absorption and emission spectra are recorded on Agilent Technologies Cary series UV-vis-NIR absorbance and Cary eclipse fluorescence spectrophotometers, respectively. […] Absorption is monitored at 260 nm with regular 5° C. intervals. Melting temperatures (Tm) of DNA samples are calculated from the first derivatives of the absorption vs. temperature curves (thermal denaturation or melting curves) obtained by monitoring at 260 nm. […]

Assay [7] relates to Drew-AT. The experiment in a line: Switch-on NIR-fluorescence enhancement with DNA. In kind it is binding. How it is done:
as §3, §4, §1
(§5) For this, poly AT-duplexes such as (A-T)20, self-complementary d(ATAT)5, Drew-AT (14 base pair self-complementary sequence with 6AT-base pairs in central core), poly GC-duplex (G-C)20, (D1)mix, which is a 16 base pair long self-complementary duplex and CT-DNA as mixed AT/GC duplexes is chosen (Table 2). […] QCy-DT experience hydrophobic environment upon binding to minor groove of AT-rich duplex DNA which prevents aromatic π-stacking interactions with base pairs and other molecules of the probe that led to the hyperchromicity in the absorbance maximum of QCy-DT. […] Further, the absorption and emission properties of QCy-DT in the presence of poly AT- and GC-duplexes are studied. […] Further, we also studied the emission behavior of QCy-DT in presence of CT-DNA, (D1)mix, single-stranded (ss) DNAs and RNA. […] To ascertain the switch-on behavior of QCy-DT in the presence of AT-rich DNA duplex, viscosity measurements are performed by increasing the glycerol content in buffer solution. […] Consequently, the observed strong fluorescence enhancement in the presence of AT-rich DNA duplexes is the result of restriction of intramolecular rotation of probe QCy-DT in the constrained environments of DNA, which also facilitates the desolvation (water molecules) around QCy-DT in the hydrophobic environment of DNA duplex (FIG. 1c).

For assay [8], the system named is (D1)mix. The experiment in a line: Switch-on NIR-fluorescence enhancement with DNA. In kind it is binding. The method, then: as §3, §4, §1, §5
Assay [9] has as its system (A-T)20. The experiment in a line: Switch-on NIR-fluorescence enhancement with DNA. In kind it is binding. The method, then: as §3, §4, §1, §5
In assay [10] the test system is single-stranded (ss) DNAs. The experiment in a line: Switch-on NIR-fluorescence enhancement with DNA. It is filed as binding. The settings on record: ssDNAs. How it is done:
as §3, §4, §1, §5

Assay [11] deals with (G-C)20. Nature of the assay: Switch-on NIR-fluorescence enhancement with DNA. Particulars: QCy-DT 2 μM, (G-C)20 4 μM, Tris-HCl. It is filed as binding. The method, then: as §3, §4, §1, §5

The term ΔTm denotes the shift of the melting midpoint relative to a reference.

As for `C[n+]1c(/C=C/c2ccc(O)c(/C=C/c3sc4ccccc4[n+]3C)c2)sc2ccccc21` [QCy-DT, quinone cyanine-dithiazole], the ΔTm in assay [1] came out at 2.5 °C; in assay [2], 6.2 °C; in assay [3], 3.5 °C; in [4], 4.2 °C. Also, the fluorescence enhancement in assay [5] is roughly 72 fold; in [6], roughly 40 fold; in assay [7] (QCy-DT 2 μM, Drew-AT 4 μM, λem=650 nm, vs probe alone) it was roughly 200 fold; in [8] it was roughly 55 fold; in assay [9] (QCy-DT 2 μM, (A-T)20 4 μM, Tris-HCl), roughly 250 fold; in assay [10] it was roughly 2 fold. Further, in [11], the fluorescence enhancement is given as 8 fold. The “fluorescence enhancement with 5′-AAATTT-3′ core, higher than 5′-AATT-3′ core” value in assay [7] (ratio 5′-AAATTT-3′ / 5′-AATT-3′) was roughly 4 fold. For the same molecule, the “difference in fluorescence enhancement, (A-T)20 compared to d(ATAT)5” value in assay [9] (ratio (A-T)20 / d(ATAT)5) is reported as roughly 4 fold.

These data come from US10683273B2, “Compounds as DNA probes, methods and applications thereof” (JAWAHARLAL NEHRU CENTRE FOR ADVANCED SCIENTIFIC RESEARCH, priority 2015, dated 2020).
